From patent US20150291532A1, “AMORPHOUS FORM OF QUINOLINE DERIVATIVE, AND METHOD FOR PRODUCING SAME” (Eisai R&D Management Co., Ltd., priority 2012, published 2015)

Legend:
[1] = Evaluation of solubility: dissolved concentration by the Paddle method, HPLC; assay type: physicochemical; conditions: approx. 40 mg in 100 mL fasting artificial intestinal juice pH 6.5, 37° C., 50 rpm; for Concentration of compound A at sampling time 5 minute: 5 min; for Concentration of compound A at sampling time 10 minute: 10 min; for Concentration of compound A at sampling time 20 minute: 20 min; for Concentration of compound A at sampling time 30 minute: 30 min; for Concentration of compound A at sampling time 45 minute: 45 min; for Concentration of compound A at sampling time 60 minute: 60 min
Procedure: The dissolved concentration of amorphous compound A obtained in Example 1 was measured by the Paddle method. Approximately 40 mg of amorphous compound A was loaded into an equipment for the elution test, and 500 μL of solution was sampled at 5, 10, 20, 30, 45 and 60 minutes each. The concentration of compound A in the solution was measured by HPLC. As a comparative control there was used B-form crystals of 4-(3-chloro-4-(cyclopropylaminocarbonyl)aminophenoxy)-7-methoxy-6-quinolinecarboxamide (see Patent Literature 2). Solvent: 100 mL of fasting artificial intestinal juice (buffer with pH 6.5, containing 29 mM NaH2PO4, 100 mM KCl, 7.5 mM lecithin, and 30 mM sodium taurocholate) Temperature: 37° C. Paddle rotational speed: 50 rpm Column: YMC-UltraHT C18 (product of YMC Inc., inner diameter: 2.0 mm, column length: 50 mm, particle size: 2 μm) Column temperature: 40° C. (using a column oven) Flow rate: 0.42 mL/min Mobile phase: Solution A and solution B were used for elution with the linear gradient shown in Table 1. Solution A H2O: CH3CN:HClO4*=990:10:1 (V/V/V) Solution B CH3CN:H2O:HClO4*=900:100:1 (V/V/V) (*: 70% aqueous solution) Injection volume: 10 μL Detection: Ultraviolet absorptiometer (measuring wavelength: 252 nm). Autosampler temperature: 10° C.

[2] = as above; assay type: physicochemical; conditions: general statement of advantageous effect

SMILES | Concentration of compound A at sampling time 5 minute [1] | Concentration of compound A at sampling time 10 minute [1] | Concentration of compound A at sampling time 20 minute [1] | Concentration of compound A at sampling time 30 minute [1] | Concentration of compound A at sampling time 45 minute [1] | Concentration of compound A at sampling time 60 minute [1] | Solubility in water [2]
COc1cc2nccc(Oc3ccc(NC(=O)NC4CC4)c(Cl)c3)c2cc1C(N)=O [Amorphous A, 4-(3-chloro-4-(cyclopropylaminocarbonyl)aminophenoxy)-7-methoxy-6-quinolinecarboxamide] | 4900 ng/mL | 5360 ng/mL | 5630 ng/mL | 5520 ng/mL | 5410 ng/mL | 5310 ng/mL | excellent solubility in water
COc1cc2nccc(Oc3ccc(NC(=O)NC4CC4)c(Cl)c3)c2cc1C(N)=O [Crystalline B, 4-(3-chloro-4-(cyclopropylaminocarbonyl)aminophenoxy)-7-methoxy-6-quinolinecarboxamide, reference compound] | 810 ng/mL | 870 ng/mL | 930 ng/mL | 940 ng/mL | 980 ng/mL | 1000 ng/mL | –
